Experimental data as given in patent publication US7018614B2, “Stabilization of radiopharmaceuticals labeled with 18-F” (Eastern Isotopes, Inc., priority 2002, dated 2006).

Assay: Stability of FDG solution against radiolysis: Radio Chemical Purity (RCP) by TLC after storage
Assay type: physicochemical
Procedure: In all experiments, the RCP was determined using a standard Thin Layer Chromatography (TLC) method using 10 cm silica-coated glass plates supplied by Alltech (Deerfield, Ill.). A 95:5 mixture of acetonitrile and water was used as a mobile phase and a TLC plate scanner supplied by Bioscan (Washington, D.C.) was used to measure the radioactivity distribution on the plate. In most cases, the sample size was less than 1 μl.
[…] It should be noted, however, that most of the radiolysis takes place in the first 3–6 hours due to the fact that the radioactivity concentration decreases exponentially over time with a half-life of 1.82 hours. After 6 hours, only about 10% of the radioactivity remains and is probably not sufficient to cause any significant decomposition of the product.
In this experiment, the final product was prepared with an initial activity concentration of 10.8 GBq/ml (292 mCi/ml). […] Samples were kept in tightly sealed vials identical to those used for storage and delivery of FDG to customers. […]
It was added in an amount calculated to result, after dilution with water, in about a 0.05% concentration in the final product.
Samples 1, 2, and 3, each of 2 ml, were taken from the final product. To see if storage conditions affected the results, samples 1 and 2 were stored in vials while sample 3 was stored in a syringe identical to those that are used to deliver FDG to users. […]

RCP after decline as a result of radiolysis (over a period of less than 12 hours, high activity concentration): less than 90% | RCP at the end of production (typical value, end of production): 98–100%
Substance: [^18F] 2-Fluoro-2-Deoxy-D-glucose [FDG]
